{"source": "the supplement of paper PMC10307832", "assay_in_all_cases": "relative viability (nuclei count vs DMSO), 5 days (fraction); higher = more cells survive", "key": {"[1]": {"compound": "CN(C)CC1=CC(=CC=C1)N=C(C2=CC=CC=C2)C3=C(NC4=C3C=CC(=C4)C(=O)N(C)C)O + N=C(N)NC(=N)NCCc1ccccc1 [Phenformin] (partner 250 µM)", "outline": "(§1)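 Lung cancer cell lines were pin-tool dosed in 1536-well plates on the day after seeding, with either a lone drug or a fixed anchor-drug dose plus five library-drug doses (not always all listed) in √10 steps. Nuclei were counted on 4× images after 5 days. Relative viability is the ratio of treated-well to vehicle-well nuclei counts, with each value a median of duplicate plates.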"}, "[2]": {"compound": "CN(C)CC1=CC(=CC=C1)N=C(C2=CC=CC=C2)C3=C(NC4=C3C=CC(=C4)C(=O)N(C)C)O + Cc1nc(Nc2ncc(C(=O)Nc3c(C)cccc3Cl)s2)cc(N2CCN(CCO)CC2)n1 [Dasatinib] (partner 0.075 µM)", "outline": "as §1"}, "[3]": {"compound": "CN(C)CC1=CC(=CC=C1)N=C(C2=CC=CC=C2)C3=C(NC4=C3C=CC(=C4)C(=O)N(C)C)O + Cc1cc(Nc2cc(N3CCN(C)CC3)nc(Sc3ccc(NC(=O)C4CC4)cc3)n2)n[nH]1 [Tozasertib] (partner 0.1 µM)", "outline": "as §1"}, "[4]": {"compound": "CN(C)CC1=CC(=CC=C1)N=C(C2=CC=CC=C2)C3=C(NC4=C3C=CC(=C4)C(=O)N(C)C)O + COc1cc2c(Oc3ccc(NC(=O)C4(C(=O)Nc5ccc(F)cc5)CC4)cc3F)ccnc2cc1OCCCN1CCOCC1 [Foretinib] (partner 0.25 µM)", "outline": "as §1"}, "[5]": {"compound": "CN(C)CC1=CC(=CC=C1)N=C(C2=CC=CC=C2)C3=C(NC4=C3C=CC(=C4)C(=O)N(C)C)O + COc1cccc2cc(-c3nc([C@H]4CC[C@H](C(=O)O)CC4)n4ncnc(N)c34)[nH]c12 [OSI-027] (partner 0.5 µM)", "outline": "as §1"}, "[6]": {"compound": "CN(C)CC1=CC(=CC=C1)N=C(C2=CC=CC=C2)C3=C(NC4=C3C=CC(=C4)C(=O)N(C)C)O + CCNC(=O)c1noc(-c2cc(C(C)C)c(O)cc2O)c1-c1ccc(CN2CCOCC2)cc1 [Luminespib] (partner 0.01 µM)", "outline": "as §1"}, "[7]": {"compound": "CN(C)CC1=CC(=CC=C1)N=C(C2=CC=CC=C2)C3=C(NC4=C3C=CC(=C4)C(=O)N(C)C)O", "outline": "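Cells of lung cancer lines were placed in 1536-well plates and kept overnight at 37 °C. Pinning then delivered five library-drug doses (not always all listed), spaced by √10, onto plates anchored with vehicle, and the cells were left 5 days without changing medium. One step fixed, permeabilised and stained them with Hoechst, and MetaXpress counted nuclei in 4× images. Viability, as a median over plates, is treated-well nuclei divided by vehicle-well nuclei, with acceptance only at control CV below 25% and at least one doubling.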"}}}
{"cell line": "NCI-H1623", "values": [{"measurement": "relative viability", "setting": "[1]; first compound 0.08 µM", "result": 0.544}, {"measurement": "relative viability", "setting": "[1]; first compound 0.253 µM", "result": 0.69}, {"measurement": "relative viability", "setting": "[1]; first compound 2.53 µM", "result": 0.551}, {"measurement": "relative viability", "setting": "[1]; first compound 8 µM", "result": 0.514}, {"measurement": "relative viability", "setting": "[2]; first compound 0.08 µM", "result": 0.552}, {"measurement": "relative viability", "setting": "[2]; first compound 0.253 µM", "result": 0.632}, {"measurement": "relative viability", "setting": "[2]; first compound 2.53 µM", "result": 0.593}, {"measurement": "relative viability", "setting": "[2]; first compound 8 µM", "result": 0.499}, {"measurement": "relative viability", "setting": "[3]; first compound 0.08 µM", "result": 0.428}, {"measurement": "relative viability", "setting": "[3]; first compound 0.253 µM", "result": 0.519}, {"measurement": "relative viability", "setting": "[3]; first compound 2.53 µM", "result": 0.412}, {"measurement": "relative viability", "setting": "[3]; first compound 8 µM", "result": 0.464}, {"measurement": "relative viability", "setting": "[4]; first compound 0.08 µM", "result": 0.825}, {"measurement": "relative viability", "setting": "[4]; first compound 0.253 µM", "result": 1.17}, {"measurement": "relative viability", "setting": "[4]; first compound 0.8 µM", "result": 0.642}, {"measurement": "relative viability", "setting": "[4]; first compound 2.53 µM", "result": 0.894}, {"measurement": "relative viability", "setting": "[4]; first compound 8 µM", "result": 0.854}, {"measurement": "relative viability", "setting": "[5]; first compound 0.08 µM", "result": 0.428}, {"measurement": "relative viability", "setting": "[5]; first compound 0.253 µM", "result": 0.449}, {"measurement": "relative viability", "setting": "[5]; first compound 0.8 µM", "result": 0.378}, {"measurement": "relative viability", "setting": "[5]; first compound 2.53 µM", "result": 0.452}, {"measurement": "relative viability", "setting": "[5]; first compound 8 µM", "result": 0.514}, {"measurement": "relative viability", "setting": "[6]; first compound 0.08 µM", "result": 0.416}, {"measurement": "relative viability", "setting": "[6]; first compound 0.253 µM", "result": 0.652}, {"measurement": "relative viability", "setting": "[6]; first compound 2.53 µM", "result": 0.445}, {"measurement": "relative viability", "setting": "[6]; first compound 8 µM", "result": 0.504}, {"measurement": "relative viability", "setting": "[7]; 0.08 µM", "result": 1.09}, {"measurement": "relative viability", "setting": "[7]; 0.253 µM", "result": 0.97}, {"measurement": "relative viability", "setting": "[7]; 0.8 µM", "result": 0.729}, {"measurement": "relative viability", "setting": "[7]; 2.53 µM", "result": 1.04}, {"measurement": "relative viability", "setting": "[7]; 8 µM", "result": 1.09}]}
